Reference: paper PMC5931096, “A Phase I study of the novel immunomodulatory agent PG545 (pixatimod) in subjects with advanced solid tumours” (British Journal of Cancer, 2018)

Test: Phase I dose-escalation: safety, tolerability, DLT and MTD of weekly 1-h IV infusion
Assay type: in vivo
Experimental: The study was an open-label, multicentre, phase 1 dose-escalation study using a 3 + 3 design. The primary objective was to determine the MTD of weekly administered PG545 via IV infusion. Secondary objectives were to characterize safety, tolerability, clinical activity, PK and PD biomarkers.
Patients continued treatment until disease progression, unacceptable toxicity or withdrawal (either voluntarily or investigator-decision).
All patients were assessed for safety, those who received at least one dose of PG545 were evaluated for efficacy. Safety assessment included the incidence of all adverse events (AEs), irrespective of relationship to study drug, according to the National Cancer Institute Common Terminology Criteria for Adverse Events, version 4.0, and the incidence of patients experiencing dose modifications and/or premature discontinuation of study drug. Dose-limiting toxicities (DLTs) used to determine the MTD were defined as occurring during Cycle 1 of treatment only and related to PG545 according to investigator assessment. If no DLT occurred in the first three subjects, the next three-subject cohort was enrolled at the next highest available dose level. If a single DLT occurred, an additional three subjects was enrolled at the same dose level. Dose escalation continued until two subjects of the cohort experienced a DLT; this was defined as the toxic dose level. The dose-escalation phase was completed and MTD determined by reducing the dose to the next lowest dose compared to the toxic dose and expanding this cohort to at least 6 subjects.

[1] = Moderate, Unrelated, Safety Set

In the case of `CC(C)CCC[C@@H](C)[C@H]1CC[C@H]2[C@@H]3CC[C@H]4C[C@@H](O[C@@H]5O[C@H](COS(=O)(=O)O)[C@@H](O[C@H]6O[C@H](COS(=O)(=O)O)[C@@H](O[C@H]7O[C@H](COS(=O)(=O)O)[C@@H](O[C@H]8O[C@H](COS(=O)(=O)O)[C@@H](OS(=O)(=O)O)[C@H](OS(=O)(=O)O)[C@H]8OS(=O)(=O)O)[C@H](OS(=O)(=O)O)[C@H]7OS(=O)(=O)O)[C@H](OS(=O)(=O)O)[C@H]6OS(=O)(=O)O)[C@H](OS(=O)(=O)O)[C@H]5OS(=O)(=O)O)CC[C@]4(C)[C@H]3CC[C@]12C` [PG545], the “TEAE: General disorders and administration site conditions” value [1] is reported as 5 (21.7%), the “TEAE: Groin pain” value [1] is reported as 1 (4.3%) and the “TEAE: Headache” value [1] is reported as 2 (8.7%). The “TEAE: Hypoalbuminaemia” value [1] was 1 (4.3%), the “TEAE: Infections and infestations” value [1] was 1 (4.3%) and the “TEAE: Insomnia” value [1] was 1 (4.3%). For the same compound, the “TEAE: Intestinal obstruction” value [1] was 1 (4.3%), the “TEAE: Investigations” value [1] was 3 (13.0%) and the “TEAE: Malaise” value [1] was 1 (4.3%). The “TEAE: Metabolism and nutritional disorders” value [1] was 4 (17.4%), the “TEAE: Musculoskeletal and connective tissue disorders” value [1] was 6 (26.1%) and the “TEAE: Musculoskeletal pain” value [1] was 1 (4.3%). The “TEAE: Nausea” value [1] was 2 (8.7%), the “TEAE: Nervous system disorders” value [1] was 2 (8.7%) and the “TEAE: Neutrophil count increased” value [1] was 1 (4.3%). The “TEAE: Pain in extremity” value [1] was 1 (4.3%), the “TEAE: Platelet count increased” value [1] was 1 (4.3%) and the “TEAE: Psychiatric disorders” value [1] was 2 (8.7%). The “TEAE: Respiratory, thoracic and mediastinal disorders” value [1] was 4 (17.4%), the “TEAE: Upper respiratory tract infection” value [1] was 1 (4.3%) and the “TEAE: White blood cell count increased” value [1] was 1 (4.3%). The “Acute pulmonary oedema, related AE leading to discontinuation” value (Overall, N = 23) was 1 (4) n (%), the “Acute pulmonary oedema, related serious AE” value (Overall, N = 23) was 1 (4) n (%) and the “Acute pulmonary oedema, related severe AE” value (Overall, N = 23) was 1 (4) n (%). The “Blood cholesterol increased, related severe AE” value (Overall, N = 23) was 1 (4) n (%), the “Blood cholesterol increased, treatment-related AE” value (Overall, N = 23) was 2 (9) n (%) and the “Blood pressure increased, related severe AE” value (Overall, N = 23) was 1 (4) n (%). For the same compound, the “Chills, related AE leading to discontinuation” value (Overall, N = 23) was 1 (4) n (%), the “Chills, related severe AE” value (Overall, N = 23) was 2 (9) n (%) and the “Chills, treatment-related AE” value (Overall, N = 23) was 5 (22) n (%). The “Decreased appetite, treatment-related AE” value (Overall, N = 23) was 5 (22) n (%), the “Diarrhoea, treatment-related AE” value (Overall, N = 23) was 4 (17) n (%) and the “Epistaxis, related AE leading to discontinuation” value (Overall, N = 23) was 1 (4) n (%). The “Epistaxis, related serious AE” value (Overall, N = 23) was 1 (4) n (%), the “Epistaxis, related severe AE” value (Overall, N = 23) was 1 (4) n (%) and the “Fatigue, related severe AE” value (Overall, N = 23) was 2 (9) n (%). For the same compound, the “Fatigue, treatment-related AE” value (Overall, N = 23) was 5 (22) n (%), the “Headache, treatment-related AE” value (Overall, N = 23) was 2 (9) n (%) and the “Hypercholesterolemia, treatment-related AE” value (Overall, N = 23) was 2 (9) n (%). The “Hyperlipidaemia, related severe AE” value (Overall, N = 23) was 1 (4) n (%), the “Hypertension, related AE leading to discontinuation” value (Overall, N = 23) was 1 (4) n (%) and the “Hypertension, related serious AE” value (Overall, N = 23) was 1 (4) n (%). For the same compound, the “Hypertension, related severe AE” value (Overall, N = 23) was 5 (22) n (%), the “Hypertension, treatment-related AE” value (Overall, N = 23) was 6 (26) n (%) and the “Hypovolaemia, related serious AE” value (Overall, N = 23) was 1 (4) n (%). For the same compound, the “Infusion-related reaction, related serious AE” value (Overall, N = 23) was 1 (4) n (%), the “Infusion-related reaction, related severe AE” value (Overall, N = 23) was 1 (4) n (%) and the “Infusion-related reaction, treatment-related AE” value (Overall, N = 23) was 5 (22) n (%). The “Injection site reaction, treatment-related AE” value (Overall, N = 23) was 2 (9) n (%), the “Nausea, treatment-related AE” value (Overall, N = 23) was 5 (22) n (%) and the “Pyrexia, related AE leading to discontinuation” value (Overall, N = 23) was 1 (4) n (%). For the same compound, the “Pyrexia, related serious AE” value (Overall, N = 23) was 1 (4) n (%), the “Pyrexia, related severe AE” value (Overall, N = 23) was 1 (4) n (%) and the “Pyrexia, treatment-related AE” value (Overall, N = 23) was 5 (22) n (%). For the same compound, the “TEAE: Acute pulmonary oedema” value (Severe, Related, Safety Set) was 1 (4.3%), the “TEAE: At least one event” value (Severe, Related, Safety Set) was 11 (47.8%) and the “TEAE: Blood cholesterol increased” value (Severe, Related, Safety Set) was 1 (4.3%). The “TEAE: Blood pressure increased” value (Severe, Related, Safety Set) was 1 (4.3%), the “TEAE: Chills” value (Severe, Related, Safety Set) was 2 (8.7%) and the “TEAE: Epistaxis” value (Severe, Related, Safety Set) was 1 (4.3%). For the same compound, the “TEAE: Fatigue” value (Severe, Related, Safety Set) was 2 (8.7%), the “TEAE: General disorders and administration site conditions” value (Severe, Related, Safety Set) was 4 (17.5%) and the “TEAE: Hyperlipidaemia” value (Severe, Related, Safety Set) was 1 (4.3%). For the same compound, the “TEAE: Hypertension” value (Severe, Related, Safety Set) was 5 (21.7%), the “TEAE: Infusion related reaction” value (Severe, Related, Safety Set) was 1 (4.3%) and the “TEAE: Injury, poisoning and procedural complications” value (Severe, Related, Safety Set) was 1 (4.3%). For the same compound, the “TEAE: Investigations” value (Severe, Related, Safety Set) was 2 (8.7%), the “TEAE: Metabolism and nutritional disorders” value (Severe, Related, Safety Set) was 1 (4.3%) and the “TEAE: Pyrexia” value (Severe, Related, Safety Set) was 1 (4.3%). For the same compound, the “TEAE: Respiratory, thoracic and mediastinal disorders” value (Severe, Related, Safety Set) was 2 (8.7 %), the “TEAE: Vascular disorders” value (Severe, Related, Safety Set) was 5 (21.7%) and the “TEAE: AST increased” value (Severe, Unrelated, Safety Set) was 1 (4.3%). The “TEAE: Anaemia” value (Severe, Unrelated, Safety Set) was 1 (4.3%), the “TEAE: At least one event” value (Severe, Unrelated, Safety Set) was 7 (30.4%) and the “TEAE: Blood ALP increased” value (Severe, Unrelated, Safety Set) was 2 (8.7%). For the same compound, the “TEAE: Blood and lymphatic system disorders” value (Severe, Unrelated, Safety Set) was 1 (4.3%), the “TEAE: Chest pain” value (Severe, Unrelated, Safety Set) was 1 (4.3%) and the “TEAE: Constipation” value (Severe, Unrelated, Safety Set) was 1 (4.3%). For the same compound, the “TEAE: Dehydration” value (Severe, Unrelated, Safety Set) was 1 (4.3%), the “TEAE: Dysuria” value (Severe, Unrelated, Safety Set) was 1 (4.3%) and the “TEAE: GGT increased” value (Severe, Unrelated, Safety Set) was 1 (4.3%). For the same compound, the “TEAE: Gastrointestinal disorders” value (Severe, Unrelated, Safety Set) was 2 (8.7 %), the “TEAE: General disorders and administration site conditions” value (Severe, Unrelated, Safety Set) was 1 (4.3%) and the “TEAE: Hyponatraemia” value (Severe, Unrelated, Safety Set) was 1 (4.3%). The “TEAE: Infections and infestations” value (Severe, Unrelated, Safety Set) was 1 (4.3%), the “TEAE: Investigations” value (Severe, Unrelated, Safety Set) was 2 (8.7%) and the “TEAE: Lower respiratory tract infection” value (Severe, Unrelated, Safety Set) was 1 (4.3%). The “TEAE: Metabolism and nutritional disorders” value (Severe, Unrelated, Safety Set) was 2 (8.7%), the “TEAE: Renal and urinary disorders” value (Severe, Unrelated, Safety Set) was 1 (4.3%) and the “TEAE: Small intestinal obstruction” value (Severe, Unrelated, Safety Set) was 1 (4.3%). For the same compound, the “Serious adverse events (SAEs), number” value (all cohorts) was 12, the “Treatment-related hypertension, occurrences” value (all cohorts) was “six” and the “SAEs resulting in withdrawal or discontinuation” value (in vivo) was “Five”. For the same compound, the “SAEs possibly, likely or certainly related to PG545” value (investigator assessment) was “Six”, the SAEs graded mild (of the 12 SAEs) was “one” and the SAEs graded severe (of the 12 SAEs) was “nine”. The SAEs graded fatal (of the 12 SAEs, death due to disease progression) was “two”, the “Duration of hypertensive episodes” value (transient) was less than 24 h and the “Maximum-tolerated dose (MTD)” value (weekly 1-h IV infusion) was 100 mg. It also gave a Toxic dose (weekly 1-h IV infusion) of 150 mg.
